Laboratory results reported in patent publication US11161830B2, “4-pyridone compound or salt thereof, and pharmaceutical composition and formulation including same” (priority 2017, dated 2021).
Read-outs that look alike come from different tables or passages of the source.

System: HBV (genotype CAT)
Experiment: Test Example 2-2: anti-HBV assay in PXB-cells (fresh human hepatocytes)
Assay type: cell-based
Conditions: Hepatitis B virus, Hepatocyte
Method: Using fresh human hepatocytes (PXB-cells, manufactured by PhenixBio Co., Ltd.) collected from a PXB mouse (a chimeric mouse with human hepatocytes), the anti-HBV activity of the representative compounds was evaluated in the following procedure.
The following was used as a medium:
DMEM (manufactured by Sigma)+0.25 μg/mL insulin (manufactured by Wako)+1% penicillin/streptomycin. (manufactured by Sigma)+20 mmol/L HEPES (manufactured by Sigma)+15 μg/mL L-proline (manufactured by Sigma)+50 nmol/L dexamethasone (manufactured by Sigma)+5 ng/mL EGF (manufactured by Peprotech)+0.1 mmol/L ascorbic acid 2-phosphate (manufactured by Wako)+10% FBS+2% DMSO
Each of the test compounds) was further added to the medium to prepare a test solution containing each of the test compounds at various concentrations.
(1) PXB-cells seeded at a seeding density of 2.1×10^5 cells/cm^2 in a 96-well microliter plate were incubated in a 5% CO2 incubator at 37° C. until a day on which the cells were infected.
(2) A HBV (genotype CAT) prepared by transfecting an HBV plasmid into an HepG2 cell was suspended in the medium containing 4% PEG-8000, and added to the plate of (1) at about 30 copies/cell such that the PXB cells were infected (100 μL/well), and the plate was incubated in a 5% CO2 incubator at 37° C. for 1 day.
(3) The culture supernatant on day 1 post infection was removed and the cells were washed three times with DMEM containing 10% FBS and 1% penicillin/streptomycin. Then, the medium was added to the plate (100 μL/well) and the plate was incubated in a 5% CO2 incubator at 37° C. for 1 day.
(4) The culture supernatant on day 2 post infection was removed and the cells were washed three times with DMEM containing 10% FBS and 1% penicillin/streptomycin. Then, the medium was added to the plate (100 μL/well) and the plate was incubated in a 5% CO2 incubator at 37° C. for 5 days.
(5) The culture supernatant on day 7 post infection was removed, the medium was added to the plate (100 μL/well), and the plate was incubated in a 5% CO2 incubator at 37° C. for 5 days.
(6) The culture supernatant on day 12 post infection was removed, the medium was added to the plate (100 μL/well), and the plate was incubated in a 5% CO2 incubator at 37° C. for 5 days.
(§1) (7) The culture supernatant on day 17 post infection was removed, the test solution was added to the plate (100 μL/well), and the plate was incubated in a 5% CO2 incubator at 37° C. for 5 days. As a control without the compound added, the medium was added to the plate (100 μL/well) and the plate was incubated in a 5% CO2 incubator at 37° C. for 5 days.
as §1, with “(8)” for “(7)”, “22” for “17”
as §1, with “(9)” for “(7)”, “27” for “17”
(10) The culture supernatant on day 32 post infection was collected.
(11) The collected culture supernatant on day 32 post infection was treated with a mixture of Buffer AL (manufactured by QIAGEN) and Proteinase K (manufactured by Invitrogen). The amount of HBV-DNA in the obtained solution was absolutely quantified by a real-time PCR method. In addition, the amount of HBsAg in the culture supernatant was absolutely quantified by chemiluminescent enzyme immunoassay using Lumipulse (registered trademark) HBsAg-HQ (manufactured by Fujirebio Inc.). A relative viral load (%) with respect to a control without the compound added was each calculated. […]

COCCN1CCN(c2nc3ccc(-n4cc(C(=O)O)c(=O)cc4-c4ccc(N5CCCC5)c(Cl)c4)cc3s2)CC1 [Example 6-5, 6-(3-chloro-4-(pyrrolidin-1-yl)phenyl)-1-(2-(4-(2-methoxyethyl)piperazine-1-yl)benzo[d]thiazol-6-yl)-4-oxo-1,4-dihydropyridine-3-carboxylic acid]
IC50 (read-out: IC50 HBV-DNA, PXB-cells infected with HBV genotype CAT, culture supernatant on day 32 post infection): 76 nM
IC50 (read-out: IC50 HBsAg, PXB-cells infected with HBV genotype CAT, culture supernatant on day 32 post infection): 61 nM
